Assay results from patent EP4722212A1, “NOVEL COMPOUND FOR INHIBITING PROTEIN KINASES AND PHARMACEUTICAL COMPOSITION COMPRISING SAME” (Magicbullettherapeutics Co., Ltd., priority 2023, dated 2024).

Key:
[1] = system: 22Rv1; test: Cell line inhibition analysis (CCK-8, 72 h); assay type: cell-based; settings: Homo sapiens; 22Rv1, 72 hours; read-out: Cell growth inhibition GI50 22Rv1
Procedure: (§1) C4-2B and 22Rv1 cells were purchased from ATCC and cultured according to the manufacturer's instructions. The cells were seeded in 96-well plates at 7×10^3cells/100 µl/well and allowed to attach for one day. After removing the culture medium, 90 µl/well of fresh culture medium was added, followed by addition of 10 µl/well of culture medium containing compounds at nine concentrations (0.076-500 µM) serially diluted 3-fold and DMSO control to achieve final concentrations of 0-50 µM, and then cultured for 72 hours in a 37 °C CO2 incubator. Cell proliferation after 72 hours was assessed by adding 10 µl/well of CCK-8 solution, orbital shaking for 30 seconds, then incubating at 37 °C CO2 incubator for 2 hours and measuring absorbance at 450 nm using a microplate reader. The measured absorbance values were corrected by subtracting the absorbance of wells containing only culture medium and CCK-8 solution, and GI50 values were calculated using GraphPad Prism 8 software.
(§2) Meanwhile, in a separate 96-well plate, cells were seeded at 7 × 10^3 cells/100 µl/well, allowed to attach for one day, CCK-8 solution was added, and absorbance was measured to establish the 'Growth (%) = 0' value.

[2] = system: C4-2B; test: Cell line inhibition analysis (CCK-8, 72 h); assay type: cell-based; settings: read-out: Cell growth inhibition GI50 C4-2B
Procedure: as §1, §2

[3] = system: A172; test: Cell line inhibition analysis (CCK-8, 72 h); assay type: cell-based; settings: Homo sapiens, A 172; read-out: Cell growth inhibition GI50 A172
Procedure: as §1, §2
(§3) Furthermore, experiments were conducted on A172, A549, HCI-H460, AsPC-1, MIA-Paca-2, DLD-1, HCT-116, HT-29, SW480, SW620, MDA-MB-231, and SKOV3 cell lines using the same method, with results shown in Tables 9 and 10 below [* <1 µM: A, <5 µM: B, <10 µM: C, >10 µM: D].

[4] = system: A549; test: Cell line inhibition analysis (CCK-8, 72 h); assay type: cell-based; settings: Homo sapiens, read-out: Cell growth inhibition GI50 A549
Procedure: as §1, §2, §3

[5] = system: HT-29; test: Cell line inhibition analysis (CCK-8, 72 h); assay type: cell-based; settings: Homo sapiens, read-out: Cell growth inhibition GI50 HT-29
Procedure: as §1, §2, §3

[6] = target: T1, ACK1 (Homo sapiens, UniProt Q07912); test: Enzyme activity inhibition (Reaction Biology); assay type: biochemical
T1 construct: purchased Reaction Biology (RBC)
T1 sequence (Q07912 whole entry): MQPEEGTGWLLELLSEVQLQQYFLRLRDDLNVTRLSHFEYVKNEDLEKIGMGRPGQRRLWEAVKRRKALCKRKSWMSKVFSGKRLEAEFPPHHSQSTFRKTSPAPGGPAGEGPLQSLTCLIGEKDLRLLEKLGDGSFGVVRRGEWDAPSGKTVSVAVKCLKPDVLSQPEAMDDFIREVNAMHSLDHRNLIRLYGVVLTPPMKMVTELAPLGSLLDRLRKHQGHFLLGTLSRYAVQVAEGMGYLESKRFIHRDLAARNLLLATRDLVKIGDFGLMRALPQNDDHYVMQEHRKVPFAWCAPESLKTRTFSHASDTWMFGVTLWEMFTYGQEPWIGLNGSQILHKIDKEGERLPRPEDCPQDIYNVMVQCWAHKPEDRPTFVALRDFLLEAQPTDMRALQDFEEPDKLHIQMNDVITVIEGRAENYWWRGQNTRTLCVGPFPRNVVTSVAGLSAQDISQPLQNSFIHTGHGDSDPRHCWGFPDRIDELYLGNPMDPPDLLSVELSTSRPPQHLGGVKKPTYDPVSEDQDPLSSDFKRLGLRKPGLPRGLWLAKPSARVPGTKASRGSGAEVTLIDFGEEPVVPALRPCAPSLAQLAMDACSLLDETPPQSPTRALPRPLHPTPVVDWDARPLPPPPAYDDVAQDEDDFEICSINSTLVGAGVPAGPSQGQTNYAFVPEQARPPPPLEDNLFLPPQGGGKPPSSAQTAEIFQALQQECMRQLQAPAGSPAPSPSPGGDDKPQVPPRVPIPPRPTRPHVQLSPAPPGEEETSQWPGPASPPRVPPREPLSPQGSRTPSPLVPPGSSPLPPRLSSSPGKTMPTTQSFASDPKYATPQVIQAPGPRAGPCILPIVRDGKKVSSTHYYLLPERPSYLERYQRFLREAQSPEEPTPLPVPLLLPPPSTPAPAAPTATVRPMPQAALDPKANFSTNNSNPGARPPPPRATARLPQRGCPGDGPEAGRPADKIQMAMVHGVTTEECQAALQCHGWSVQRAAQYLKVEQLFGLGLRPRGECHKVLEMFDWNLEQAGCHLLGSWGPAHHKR
Procedure: (§4) [* <10 nM: A, <100 nM: B, >100 nM: C]. [Table 7]

[7] = target: T2, BMX (Homo sapiens, UniProt P51813); test: Enzyme activity inhibition (Reaction Biology); assay type: biochemical
T2 construct: purchased Reaction Biology (RBC)
T2 sequence (P51813 1-675): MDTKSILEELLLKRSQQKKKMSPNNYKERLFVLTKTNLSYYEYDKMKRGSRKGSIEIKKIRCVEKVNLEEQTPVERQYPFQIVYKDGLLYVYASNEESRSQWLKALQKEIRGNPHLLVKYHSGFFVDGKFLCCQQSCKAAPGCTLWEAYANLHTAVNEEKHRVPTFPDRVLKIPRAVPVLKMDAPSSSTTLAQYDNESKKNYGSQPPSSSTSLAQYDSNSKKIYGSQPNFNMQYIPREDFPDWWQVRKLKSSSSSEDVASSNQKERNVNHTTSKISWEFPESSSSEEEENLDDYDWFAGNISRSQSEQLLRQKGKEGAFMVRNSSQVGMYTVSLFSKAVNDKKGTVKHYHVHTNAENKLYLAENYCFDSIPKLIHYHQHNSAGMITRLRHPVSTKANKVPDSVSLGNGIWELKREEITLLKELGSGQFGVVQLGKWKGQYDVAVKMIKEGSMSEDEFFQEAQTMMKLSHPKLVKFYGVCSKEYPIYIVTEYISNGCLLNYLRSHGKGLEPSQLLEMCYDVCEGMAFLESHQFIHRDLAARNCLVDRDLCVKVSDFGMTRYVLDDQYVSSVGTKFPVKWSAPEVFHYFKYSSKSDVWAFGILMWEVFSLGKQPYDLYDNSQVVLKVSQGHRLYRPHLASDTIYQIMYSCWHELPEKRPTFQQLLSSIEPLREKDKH
Procedure: as §4

[8] = target: T3, Src (Homo sapiens, UniProt P12931); test: Enzyme activity inhibition (Reaction Biology); assay type: biochemical
T3 construct: purchased Reaction Biology (RBC)
T3 sequence (P12931 whole entry): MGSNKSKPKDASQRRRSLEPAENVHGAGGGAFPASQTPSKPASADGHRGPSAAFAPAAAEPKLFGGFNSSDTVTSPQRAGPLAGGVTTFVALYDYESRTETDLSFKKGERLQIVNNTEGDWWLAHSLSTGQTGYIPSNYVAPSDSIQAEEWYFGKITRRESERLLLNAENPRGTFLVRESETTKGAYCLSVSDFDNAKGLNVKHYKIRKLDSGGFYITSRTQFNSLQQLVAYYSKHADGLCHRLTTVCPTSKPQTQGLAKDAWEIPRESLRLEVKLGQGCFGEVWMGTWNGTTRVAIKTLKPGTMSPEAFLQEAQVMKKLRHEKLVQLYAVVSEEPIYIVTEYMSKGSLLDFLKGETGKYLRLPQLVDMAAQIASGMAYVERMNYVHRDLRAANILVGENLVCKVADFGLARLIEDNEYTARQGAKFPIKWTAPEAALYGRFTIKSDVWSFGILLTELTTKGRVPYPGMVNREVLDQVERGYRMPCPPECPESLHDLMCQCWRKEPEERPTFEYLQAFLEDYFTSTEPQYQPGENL
Procedure: as §4

[9] = system: AsPC-1; test: Cell line inhibition analysis (CCK-8, 72 h); assay type: cell-based; settings: Homo sapiens, ASPC1; read-out: Cell growth inhibition GI50 AsPC-1
Procedure: as §1, §2, §3

[10] = system: HCT-116; test: Cell line inhibition analysis (CCK-8, 72 h); assay type: cell-based; settings: Homo sapiens, read-out: Cell growth inhibition GI50 HCT-116
Procedure: as §1, §2, §3

[11] = system: SW480; test: Cell line inhibition analysis (CCK-8, 72 h); assay type: cell-based; settings: Homo sapiens, read-out: Cell growth inhibition GI50 SW480
Procedure: as §1, §2, §3

[12] = system: SW620; test: Cell line inhibition analysis (CCK-8, 72 h); assay type: cell-based; settings: Homo sapiens, SW-620; read-out: Cell growth inhibition GI50 SW620
Procedure: as §1, §2, §3

GI50 [1]	IC50 [6]	IC50 [7]	IC50 [8]	SMILES	GI50 [2]	other results
1 to 5 µM				Cc1ccc(NC(=O)c2ccc(Cl)c(C(F)(F)F)c2)cc1N1Cc2cnc(N)nc2C2(CC2)C1=O [Compound 5, N-(3-(2'-amino-7'-oxo-5'H-spiro[cyclopropane-1,8'-pyrido[4,3-d]pyrimidine]-6'(7'H)-yl)-4-methylphenyl)-4-chloro-3-(trifluoromethyl)benzamide]	1 to 5 µM	
				Cc1ccc(NC(=O)c2cncc(C(F)(F)F)c2)cc1N1Cc2cnc(N[C@@H](C)CO)nc2C2(CC2)C1=O [Compound 131, (S)-N-(3-(2'-((1-hydroxypropan-2-yl)amino)-7'-oxo-5'H-spiro[cyclopropane-1,8'-pyrido[4,3-d]pyrimidine]-6'(7'H)-yl)-4-methylphenyl)-5-(trifluoromethyl)nicotinamide]		GI50 [3]: 1 to 5 µM; GI50 [4]: > 10 µM; GI50 [5]: > 10 µM
< 1 µM	0.01 to 0.1 µM	< 0.01 µM	< 0.01 µM	Cc1ccc(NC(=O)c2cc(Cl)cc(C(F)(F)F)c2)cc1N1Cc2cnc(N)nc2C2(CC2)C1=O [Compound 26, N-(3-(2'-amino-7'-oxo-5'H-spiro[cyclopropane-1,8'-pyrido[4,3-d]pyrimidine]-6'(7'H)-yl)-4-methylphenyl)-3-chloro-5-(trifluoromethyl)benzamide]	< 1 µM	
				Cc1ccc(NC(=O)c2cccc(C(F)(F)F)c2)cc1N1Cc2cnc(Nc3ccc(CN4CCN(C)CC4)cc3)nc2C2(CC2)C1=O [Compound 43, N-(4-methyl-3-(2'-((4-((4-methylpiperazin-1-yl)methyl)phenyl)amino)-7'-oxo-5'H-spiro[cyclopropane-1,8'-pyrido[4,3-d]pyrimidine]-6'(7'H)-yl)phenyl)-3-(trifluoromethyl)benzamide]		GI50 [9]: < 1 µM; GI50 [10]: < 1 µM
	0.01 to 0.1 µM	0.01 to 0.1 µM	0.01 to 0.1 µM	COc1ccc(-c2cc(C(=O)Nc3ccc(C)c(N4Cc5cnc(N)nc5C5(CC5)C4=O)c3)cc(C(F)(F)F)c2)cc1 [Compound 20, N-(3-(2'-amino-7'-oxo-5'H-spiro[cyclopropane-1,8'-pyrido[4,3-d]pyrimidine]-6'(7'H)-yl)-4-methylphenyl)-4'-methoxy-5-(trifluoromethyl)-[1,1'-biphenyl]-3-carboxamide]	< 1 µM	
	< 0.01 µM	< 0.01 µM	< 0.01 µM	Cc1cc(Nc2ncc3c(n2)C2(CC2)C(=O)N(c2cc(NC(=O)c4cccc(C(F)(F)F)c4)ccc2C)C3)n(C)n1 [Compound 1, N-(3-(2'-((1,3-dimethyl-1H-pyrazol-5-yl)amino)-7'-oxo-5'H-spiro[cyclopropane-1,8'-pyrido[4,3-d]pyrimidin]-6'(7'H)-yl)-4-methylphenyl)-3-(trifluoromethyl)benzamide]	1 to 5 µM	
	0.01 to 0.1 µM	< 0.01 µM	> 0.1 µM	Cc1ccc(NC(=O)c2cc(N3CCOCC3)cc(C(F)(F)F)c2)cc1N1Cc2cnc(NC3CC3)nc2C2(CC2)C1=O [Compound 28, N-(3-(2'-(cyclopropylamino)-7'-oxo-5'H-spiro[cyclopropane-1,8'-pyrido[4,3-d]pyrimidine]-6'(7'H)-yl)-4-methylphenyl)-3-morpholino-5-(trifluoromethyl)benzamide]	1 to 5 µM	GI50 [9]: 5 to 10 µM; GI50 [10]: < 1 µM; GI50 [11]: 1 to 5 µM; GI50 [12]: 1 to 5 µM
1 to 5 µM	< 0.01 µM	< 0.01 µM	< 0.01 µM	COc1cc(C(=O)Nc2ccc(C)c(N3Cc4cnc(N)nc4C4(CC4)C3=O)c2)cc(C(F)(F)F)c1 [Compound 19, N-(3-(2'-amino-7'-oxo-5'H-spiro[cyclopropane-1,8'-pyrido[4,3-d]pyrimidine]-6'(7'H)-yl)-4-methylphenyl)-3-methoxy-5-(trifluoromethyl)benzamide]	1 to 5 µM	
				Cc1ccc(NC(=O)c2cccc(C(F)(F)F)c2)cc1N1Cc2cnc(Nc3ccc(N4CCN(C)CC4)cc3)nc2C2(CC2)C1=O [Compound 38, N-(4-methyl-3-(2'-((4-(4-methylpiperazin-1-yl)phenyl)amino)-7'-oxo-5'H-spiro[cyclopropane-1,8'-pyrido[4,3-d]pyrimidine]-6'(7'H)-yl)phenyl)-3-(trifluoromethyl)benzamide]		GI50 [9]: < 1 µM; GI50 [10]: < 1 µM; GI50 [11]: < 1 µM; GI50 [12]: < 1 µM
				Cc1ccc(NC(=O)c2cccc(C(F)(F)F)c2)cc1N1Cc2cnc(N[C@@H](C)CO)nc2C2(CC2)C1=O [Compound 127, (S)-N-(3-(2'-((1-hydroxypropan-2-yl)amino)-7'-oxo-5'H-spiro[cyclopropane-1,8'-pyrido[4,3-d]pyrimidine]-6'(7'H)-yl)-4-methylphenyl)-3-(trifluoromethyl)benzamide]		GI50 [3]: < 1 µM; GI50 [4]: > 10 µM; GI50 [5]: > 10 µM
< 1 µM	< 0.01 µM	< 0.01 µM	< 0.01 µM	Cc1cn(-c2cc(C(=O)Nc3ccc(C)c(N4Cc5cnc(N)nc5C5(CC5)C4=O)c3)cc(C(F)(F)F)c2)cn1 [Compound 6, N-(3-(2'-amino-7'-oxo-5'H-spiro[cyclopropane-1,8'-pyrido[4,3-d]pyrimidine]-6'(7'H)-yl)-4-methylphenyl)-3-(4-methyl-1H-imidazol-1-yl)-5-(trifluoromethyl)benzamide]	1 to 5 µM	
	0.01 to 0.1 µM	> 0.1 µM	> 0.1 µM	Cc1ccc(NC(=O)c2cc(C(F)(F)F)ccc2Cl)cc1N1Cc2cnc(N)nc2C2(CC2)C1=O [Compound 25, N-(3-(2'-amino-7'-oxo-5'H-spiro[cyclopropane-1,8'-pyrido[4,3-d]pyrimidine]-6'(7'H)-yl)-4-methylphenyl)-2-chloro-5-(trifluoromethyl)benzamide]	> 10 µM	
	0.01 to 0.1 µM	< 0.01 µM	0.01 to 0.1 µM	COCCN(C)c1cc(C(=O)Nc2ccc(C)c(N3Cc4cnc(N)nc4C4(CC4)C3=O)c2)cc(C(F)(F)F)c1 [Compound 31, N-(3-(2'-amino-7'-oxo-5'H-spiro[cyclopropane-1,8'-pyrido[4,3-d]pyrimidine]-6'(7'H)-yl)-4-methylphenyl)-3-((2-methoxyethyl)(methyl)amino)-5-(trifluoromethyl)benzamide]	1 to 5 µM	
1 to 5 µM				Cc1ccc(NC(=O)c2ccc(F)c(C(F)(F)F)c2)cc1N1Cc2cnc(N)nc2C2(CC2)C1=O [Compound 4, N-(3-(2'-amino-7'-oxo-5'H-spiro[cyclopropane-1,8'-pyrido[4,3-d]pyrimidine]-6'(7'H)-yl)-4-methylphenyl)-4-fluoro-3-(trifluoromethyl)benzamide]	1 to 5 µM	
	0.01 to 0.1 µM	< 0.01 µM	< 0.01 µM	Cc1ccc(NC(=O)c2cc(N3CCOCC3)cc(C(F)(F)F)c2)cc1N1Cc2cnc(N)nc2C2(CC2)C1=O [Compound 29, N-(3-(2'-amino-7'-oxo-5'H-spiro[cyclopropane-1,8'-pyrido[4,3-d]pyrimidine]-6'(7'H)-yl)-4-methylphenyl)-3-morpholino-5-(trifluoromethyl)benzamide]	1 to 5 µM	
